Results: paper PMC9785542, “Discovery of 1-Benzhydryl-Piperazine-Based HDAC Inhibitors with Anti-Breast Cancer Activity: Synthesis, Molecular Modeling, In Vitro and In Vivo Biological Evaluation” (Pharmaceutics, 2022)
“And” between values parts separate entries of the source, which are not always exact repeats. Equal values may be shown once.

Legend:
MCF-7 cells = experiment: Cell viability (MTT) assay, MCF-7; format: cell-based; settings: Homo sapiens, MCF7, 48 h, read-out: Cytotoxic activity IC50 ± SD, MCF-7
Experimental: Human breast adenocarcinoma cells (MCF-7, ATCC® HTB-22™) and triple-negative breast cancer cells (MDA-MB-231, ATCC® HTB-26™) were obtained from the American Type Culture Collection (Rockville, MD, USA). Cells were maintained as a monolayer culture in DMEM:Ham’s 12 (1:1) medium (Sigma-Aldrich, St. Louis, MO, USA) supplemented with penicillin (192 U/mL), streptomycin (200 µg/mL), and 10% of heat-inactivated fetal calf serum (FCS). Cells were grown at 37 °C in 5% CO2 and humidified air atmosphere, by twice weekly subculture.
Cytotoxic activity of synthesized 1-benzhydryl-piperazine-based HDAC inhibitors was assessed on MDA-MB-231 and MCF-7 cells using an MTT assay. MDA-MB-231 (5 × 10^3 cells/well) and MCF-7 (5 × 10^3 cells/well) were treated with synthesized compounds in six different concentrations (100, 50, 25, 12.5, 6.25, and 3.13 μM), and each concentration was added in five replicates. MTT solution (3-(4,5-dimethylthiazol-2-yl)-2,5-diphenyltetrazolium bromide) (Sigma-Aldrich, St. Louis, USA) was added to each well (20 µL) after 48 h. After 4 h of incubation, 100 μL of 10% SDS was added in each well and incubated at 37 °C. On the next day, the absorbance at 570 nm was recorded. The ratio of absorbance (570 nm) values between treated and control cells multiplied by 100 was used to calculate cell survival (%). The concentration of synthesized HDAC inhibitors that reduced cell viability by 50% was defined as the IC50 value, and was compared to the vehicle control.

[1] = target: T1, Human recombinant N-ter-GST-HDAC-6 (Homo sapiens, UniProt Q9UBN7); experiment: HDAC-Glo I/II bioluminogenic enzyme assay, HDAC6; format: biochemical; parameters: GST (N); purchased BPS Bioscience 50006; settings: for % HDAC6 Inhibition at 5 μM / inhibition at 5 µM: mean ± standard error of triplicate; for IC50: mean ± SD of three independent experiments, read-out: HDAC Inhibition, IC50 ± SD, HDAC6; for Selectivity Ratio HDAC1/6 / Selectivity Ratio HDAC3/6 / Selectivity Ratio HDAC8/6: ratio of IC50 values
T1 sequence (Q9UBN7 1-1215): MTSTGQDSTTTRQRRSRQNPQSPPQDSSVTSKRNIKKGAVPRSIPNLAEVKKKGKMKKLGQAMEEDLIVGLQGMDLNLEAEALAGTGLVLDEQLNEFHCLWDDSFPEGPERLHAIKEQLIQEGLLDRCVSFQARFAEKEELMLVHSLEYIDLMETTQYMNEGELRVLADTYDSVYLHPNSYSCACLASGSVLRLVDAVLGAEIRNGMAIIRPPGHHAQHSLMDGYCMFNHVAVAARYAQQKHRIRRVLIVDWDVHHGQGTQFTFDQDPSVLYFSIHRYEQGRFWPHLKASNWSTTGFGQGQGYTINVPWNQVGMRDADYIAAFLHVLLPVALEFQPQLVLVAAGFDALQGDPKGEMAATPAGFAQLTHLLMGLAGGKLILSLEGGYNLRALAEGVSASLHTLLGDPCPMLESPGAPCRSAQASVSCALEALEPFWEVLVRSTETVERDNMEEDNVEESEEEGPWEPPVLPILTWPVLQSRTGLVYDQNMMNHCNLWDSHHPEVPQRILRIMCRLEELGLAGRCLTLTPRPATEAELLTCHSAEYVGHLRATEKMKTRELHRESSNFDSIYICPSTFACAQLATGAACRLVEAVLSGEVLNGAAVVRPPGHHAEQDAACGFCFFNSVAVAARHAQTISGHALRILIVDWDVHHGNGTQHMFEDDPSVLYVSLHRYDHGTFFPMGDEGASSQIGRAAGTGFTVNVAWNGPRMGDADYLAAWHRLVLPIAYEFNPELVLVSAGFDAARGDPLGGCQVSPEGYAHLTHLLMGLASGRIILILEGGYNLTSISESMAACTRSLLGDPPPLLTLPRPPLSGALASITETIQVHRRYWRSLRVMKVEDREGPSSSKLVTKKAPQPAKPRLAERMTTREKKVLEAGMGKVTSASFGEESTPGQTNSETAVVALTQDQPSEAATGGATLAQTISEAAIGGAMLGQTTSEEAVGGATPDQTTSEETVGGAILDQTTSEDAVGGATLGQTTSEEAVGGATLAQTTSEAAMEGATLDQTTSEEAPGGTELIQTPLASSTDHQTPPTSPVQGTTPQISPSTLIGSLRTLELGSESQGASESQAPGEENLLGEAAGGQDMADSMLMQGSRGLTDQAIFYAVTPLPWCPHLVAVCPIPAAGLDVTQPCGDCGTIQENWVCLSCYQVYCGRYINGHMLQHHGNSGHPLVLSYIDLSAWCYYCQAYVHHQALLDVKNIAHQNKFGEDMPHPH

[2] = target: T2, Human recombinant C-terminal His-tag-HDAC8 (Homo sapiens, UniProt Q9BY41); experiment: HDAC-Glo I/II bioluminogenic enzyme assay, HDAC8; format: biochemical; settings: mean ± SD of three independent experiments; read-out: HDAC Inhibition, IC50 ± SD, HDAC8
T2 construct: His (C); purchased BPS Bioscience 50008
T2 sequence (Q9BY41 1-377): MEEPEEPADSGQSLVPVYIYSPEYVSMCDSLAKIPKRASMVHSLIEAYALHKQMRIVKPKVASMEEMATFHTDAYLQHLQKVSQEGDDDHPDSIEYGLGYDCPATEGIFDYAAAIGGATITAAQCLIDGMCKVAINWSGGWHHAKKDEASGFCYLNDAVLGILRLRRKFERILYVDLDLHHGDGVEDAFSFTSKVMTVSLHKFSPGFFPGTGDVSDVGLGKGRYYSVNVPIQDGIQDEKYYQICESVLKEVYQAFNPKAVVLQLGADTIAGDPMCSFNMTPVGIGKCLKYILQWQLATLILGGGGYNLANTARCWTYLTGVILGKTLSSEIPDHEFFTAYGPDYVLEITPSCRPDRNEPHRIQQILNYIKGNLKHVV

[3] = target: Human recombinant HDAC-3/NcoR2 (Homo sapiens, UniProt O15379); experiment: HDAC-Glo I/II bioluminogenic enzyme assay, HDAC3; format: biochemical; parameters: purchased BPS Bioscience 50003; settings: mean ± SD of three independent experiments; read-out: HDAC Inhibition, IC50 ± SD, HDAC3
MDA-MB-231 cells = experiment: Apoptosis assay, Annexin V-FITC/7-AAD flow cytometry; format: cell-based, human; settings: for early apoptotic cells: 72 h
Experimental: Examined breast cancer cells (MDA-MB-231) were stained with annexin V–fluorescein isothiocyanate/and 7AAD (BD Pharmingen, San Diego, CA, USA), and the samples were prepared following the specifications given by manufacturer. The population of apoptotic cells was analyzed by flow cytometry using a FACS Calibur cytometer and Cell Quest computer software (Becton Dickinson, Heidelberg, Germany).

Human recombinant HDAC-3/NcoR2, sequence (O15379 whole entry): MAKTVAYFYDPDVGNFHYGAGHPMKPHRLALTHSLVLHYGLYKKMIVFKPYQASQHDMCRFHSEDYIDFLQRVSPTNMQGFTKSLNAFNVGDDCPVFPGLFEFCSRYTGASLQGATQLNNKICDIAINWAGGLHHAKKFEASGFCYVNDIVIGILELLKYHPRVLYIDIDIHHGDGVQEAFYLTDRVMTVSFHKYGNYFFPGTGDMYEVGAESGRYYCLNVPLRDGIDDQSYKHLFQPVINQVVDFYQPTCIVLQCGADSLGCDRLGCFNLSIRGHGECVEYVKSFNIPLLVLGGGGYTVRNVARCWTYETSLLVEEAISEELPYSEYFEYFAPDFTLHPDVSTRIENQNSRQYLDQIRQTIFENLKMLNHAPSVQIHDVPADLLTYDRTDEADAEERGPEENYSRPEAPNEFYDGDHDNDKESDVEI
Human recombinant HDAC-3/NcoR2, sequence (Q9Y618 395-489 partner limits assumed): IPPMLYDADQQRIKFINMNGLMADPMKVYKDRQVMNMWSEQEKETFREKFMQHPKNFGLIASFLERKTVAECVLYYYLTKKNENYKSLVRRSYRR

Row | SMILES | IC50 (MCF-7 cells) [nM] | % HDAC6 Inhibition at 5 μM [1] [%] | inhibition at 5 µM [1] [%] | IC50 [1] [nM] | Selectivity Ratio HDAC1/6 [1] | Selectivity Ratio HDAC3/6 [1] | Selectivity Ratio HDAC8/6 [1] | IC50 [2] [nM] | IC50 [3] [nM] | early apoptotic cells (MDA-MB-231 cells; IC50 concentration) | programmed cell death (MDA-MB-231 cells; IC50 concentration, 24 h) | late apoptotic cell population (MDA-MB-231 cells; 5 μM, control 1.13%) [%] | early apoptotic cell population (MDA-MB-231 cells; 5 μM, control 1.27%) [%]
1 | O=C(NO)c1ccc(CN2CCN(C(c3ccccc3)c3ccccc3)CC2)cc1 [Compound 9b, 4-(4-(diphenylmethyl)-piperazin-1-ylmethyl)-N-hydroxy-benzamide] | 99500 ± 700 | 96.9 ± 0.3 | > 90 | 31 ± 4 | 47.5 | 112 and 111.8 | 23 | 708 ± 45 | 3470 ± 121 | around 45% |  |  | 
2 | O=C(CCCCCCN1CCN(C(c2ccccc2)c2ccccc2)CC1)NO [Compound 7b, 7-(4-(diphenylmethyl)-piperazin-1-yl)-N-hydroxyheptanamide] | > 100000 | 97.1 ± 0.8 | > 90 | 96 ± 8 | 6.4 | 2.8 | 3.6 | 345 ± 17 | 267 ± 19 | around 45% | slight increase |  | 
3 | O=C(CCCCCCCN1CCN(C(c2ccccc2)c2ccccc2)CC1)NO [Compound 8b, 8-(4-(diphenylmethyl)-piperazin-1-yl)-N-hydroxyoctanamide] | 39100 ± 2700 | 97.7 ± 0.2 | > 90 | 124 ± 13 | 3.3 | 1.7 | 2 | 245 ± 2 | 207 ± 14 | around 45% |  | 0.45 | 4.13
